Experimental data from ChEMBL document CHEMBL3826966, “A chromatography-free isolation of rohitukine from leaves of Dysoxylum binectariferum: Evaluation for in vitro cytotoxicity, Cdk inhibition and physicochemical properties” (Bioorg Med Chem Lett, 2016).

Experiments:
Type in all cases: physicochemical
[1] = Partition coefficient, logP of the compound in water/PBS buffer at pH 7.4 at 25 degC after 20 mins by shake flask method
[2] = Ionization constant, pKa of the compound in buffer at pH 1 to 13 by uV spectrophotometry
[3] = Distribution coefficient, logD of the compound in water/PBS buffer at pH 7.4 at 25 degC after 20 mins by shake flask method
[4] = Ionization constant, pKa of the compound
[5] = Partition coefficient, logP of the compound in water/PBS buffer at 25 degC by OECD guidelines based method; details: octanol/water

logD at 20 min [1]: 0.21
pKa [2]: 5.56
logD at 20 min [3]: 1.24
pKa [4]: 5.68
logP [5]: 1.01
Structure (SMILES): CN1CC[C@H](c2c(O)cc(O)c3c(=O)cc(-c4ccccc4Cl)oc23)[C@H](O)C1 [ALVOCIDIB]
